Experimental data as given in paper PMC9320654 (Toxins, 2022).
Counter-ions that a name gives are not always drawn.

Legend:
[1] = Metabolic stability in cryopreserved hepatocytes, mouse; format: in vitro ADME, CD-1 mouse
Procedure: (§1) Hepatocyte metabolic stability was evaluated in cryopreserved hepatocytes from CD-1 mice (Lot#: EXR), Sprague Dawley rats (Lot#: OSQ), beagle dogs (Lot#: ZMB), cynomolgus monkeys (Lot#: KMS), and human donors (Lot#: AEL) obtained from Bioreclamation IVT, LLC (Shanghai, China). […] Samples were withdrawn from the reaction mixture at 0, 15, 30, 60, and 90 min and were quenched with stop solution (acetonitrile containing 200 ng/mL tolbutamide and 200 ng/mL labetalol as internal standards). A cocktail of 7-ethoxycoumarin (Lot#: I1825085) was used as the positive control for the assay. The analytical plates were sealed and stored at 4 °C until LC-MS/MS analysis.
(§2) The remaining percentages of test articles after incubation were calculated by the following equations:(7) %Remainingat Appointed Time=Peak Area Ratios of Test Article versus Internal Standard at Appointed Time/Peak Area Ratios of Test Article versus Internal Standard 0 min
(§3) We used the equation of first order kinetics to calculate T1/2 and CLint:
(§4) Equation of first-order kinetics:(8) Ct=C0·e^−k·t when Ct=1/2C0,T1/2=ln2/k=0.693/k (9) CLint hep=k/million cells per mL (10) CLint liver=CLint hep×Liver weight g/kg body weight×hepatocellularity

[2] = Metabolic stability in cryopreserved hepatocytes, rat; format: in vitro ADME, Sprague Dawley rat
Procedure: as §1, §2, §3, §4

[3] = Metabolic stability in cryopreserved hepatocytes, human; format: in vitro ADME
Procedure: as §1, §2, §3, §4

[4] = Metabolic stability in cryopreserved hepatocytes, monkey; format: in vitro ADME, cynomolgus monkey
Procedure: as §1, §2, §3, §4

[5] = Metabolic stability in cryopreserved hepatocytes, dog; format: in vitro ADME, beagle dog
Procedure: as §1, §2, §3, §4

[6] = Plasma stability, dog plasma; format: in vitro ADME; conditions: beagle
Procedure: (§5) The pooled frozen plasma was thawed in a water bath at 37 °C prior to the experiment. Plasma was centrifuged at 4000 rpm for 5 min, and the clots, if any, were removed. Using an Apricot automation workstation, blank plasma (98 μL/well) was added to six 96-well reaction plates (Blank, T0, T10, T30, T60, and T120). An Apricot automation workstation was used to add working solution (2 μL/well, 100 μM) to all reaction plates except the Blank plate (T0, T10, T30, T60, and T120). All reaction plates containing mixtures of compound and plasma were incubated at 37 °C in a water bath. At the end of the incubation, 400 μL of stop solution (200 ng/mL tolbutamide and 200 ng/mL labetalol in acetonitrile) was added to precipitate the protein, and the mixture was mixed thoroughly. Samples were then vortexed and centrifuged (20 min, 4000 rpm, 4 °C). After centrifugation, an Apricot automation workstation was used to transfer 50 μL of supernatant into 100 μL of HPLC water. […] Each bioanalysis plate was sealed and shaken for 10 min prior to LC-MS/MS analysis. The % remaining test compound after incubation in plasma was calculated using the following equation:(11) % Remaining= PAR at appointed incubation time/PAR at T0 time×100 where PAR is the peak area ratio of analyte versus internal standard (IS).
(§6) The appointed incubation time points are T0 (0 min), Tn (n = 0, 10, 30, 60, 120 min).

[7] = Plasma stability, rat plasma; format: in vitro ADME
Procedure: as §5, §6

[8] = Metabolite identification by LC-UV-MS^n in dog liver microsomes; format: in vitro ADME; set-up: key: +: metabolite was detected in liver microsomes; -: metabolite was detected in liver microsomes; conditions: BEA 10 µM, 37 °C, 60 min
Procedure: (§7) The positive control, 7-ethoxycoumarin (7-EC) at 10 µM, was run concurrently to assess Phase I metabolic activities in liver microsomes. […] After incubation, the samples were analyzed by LC-UV-MS (Table S7). The structures of the metabolites were proposed based on the interpretation of their MS and MS2 data. The results are presented in Table 6 and Figure 6. %Total=Peak Area of a Releted Component/Peak Area of Total Releted Component×100%

[9] = Metabolite identification by LC-UV-MS^n in rat liver microsomes; format: in vitro ADME; set-up: key: +: metabolite was detected in liver microsomes; -: metabolite was detected in liver microsomes; conditions: BEA 10 µM, 37 °C, 60 min
Procedure: as §7

[10] = Metabolite identification by LC-UV-MS^n in mouse liver microsomes; format: in vitro ADME; set-up: key: +: metabolite was detected in liver microsomes; -: metabolite was detected in liver microsomes; conditions: BEA 10 µM, 37 °C, 60 min
Procedure: as §7

[11] = Metabolite identification by LC-UV-MS^n in monkey liver microsomes; format: in vitro ADME; set-up: key: +: metabolite was detected in liver microsomes; -: metabolite was not detected in liver microsomes; conditions: BEA 10 µM, 37 °C, 60 min
Procedure: as §7

[12] = Metabolite identification by LC-UV-MS^n in human liver microsomes; format: in vitro ADME; set-up: key: +: metabolite was detected in liver microsomes; -: metabolite was not detected in liver microsomes; conditions: BEA 10 µM, 37 °C, 60 min
Procedure: as §7

[13] = Plasma stability, monkey plasma; format: in vitro ADME; conditions: cynomolgus
Procedure: as §5, §6

[14] = Plasma stability, human plasma; format: in vitro ADME
Procedure: as §5, §6

[15] = Plasma stability, mouse plasma; format: in vitro ADME
Procedure: as §5, §6

[16] = biological target: T1, CYP2C9 (Homo sapiens, UniProt P11712); format: in vitro ADME; conditions: CYP2C9 in HLM; positive control, final conc. 3 μM in Table S1
T1 construct: tissue Corning or Xenotech; host or cells: human liver microsomes (mixed gender)
Procedure: A mixture of microsomes and substrates for each CYP isozyme were prepared individually in 100 mM potassium phosphate buffer at pH 7.4. […] The reaction mixture was incubated for 10 min, followed by the addition of 20 μL of 10 mM NADPH solution. […] At the appropriate time point, we terminated the reaction by adding 400 µL of cold stop solution (200 ng/mL tolbutamide and labetalol in acetonitrile). The samples were centrifuged at 4000 rpm for 20 min to precipitate the protein, and then detected by LC/MS/MS. XL fit was used to plot the percent of vehicle control versus the test compound concentrations and for nonlinear regression analysis of the data. The IC50 values were determined using 3- or 4-parameter logistic equations.

[17] = Metabolic stability in liver microsomes, CLM; format: in vitro ADME, cynomolgus monkey
Procedure: (§8) All incubations were performed at 37 °C in 100 mM potassium phosphate buffer in an orbital incubator. Various nicotinamide adenine dinucleotide phosphate (NADPH) concentrations were tried to optimize the method. […] Samples were withdrawn from the reaction mixture at different times (5, 15, 30, 45, and 60 min), and the reaction was terminated using acetonitrile. […] Each bioanalysis plate was sealed and shaken for 10 min prior to LC-MS/MS analysis (Table S6).

[18] = Metabolic stability in liver microsomes, DLM; format: in vitro ADME, beagle dog
Procedure: (§9) All incubations were performed at 37 °C in 100 mM potassium phosphate buffer in an orbital incubator. Various nicotinamide adenine dinucleotide phosphate (NADPH) concentrations were tried to optimize the method. […]. The positive control compound testosterone was incubated in parallel with the BEA samples. Each bioanalysis plate was sealed and shaken for 10 min prior to LC-MS/MS analysis (Table S6). […]

[19] = Metabolic stability in liver microsomes, MLM; format: in vitro ADME, CD-1 mouse
Procedure: as §8

[20] = Metabolic stability in liver microsomes, RLM; format: in vitro ADME, Sprague Dawley rat
Procedure: as §9

[21] = Plasma protein binding (HTdialysis equilibrium dialysis), mouse plasma; format: in vitro ADME, CD-1 mouse; conditions: CD-1, pH 7.4, read-out: Fu (%), unbound fraction
[22] = Plasma protein binding (HTdialysis equilibrium dialysis), dog plasma; format: in vitro ADME; conditions: beagle, pH 7.4, read-out: Fu (%), unbound fraction
[23] = Plasma protein binding (HTdialysis equilibrium dialysis), monkey plasma; format: in vitro ADME, cynomolgus monkey; conditions: pH 7.4, read-out: Fu (%), unbound fraction
[24] = Plasma protein binding (HTdialysis equilibrium dialysis), rat plasma; format: in vitro ADME; conditions: Sprague Dawley, pH 7.4, read-out: Fu (%), unbound fraction
[25] = tested on: CYP3A4/5; conditions: ref 20 (Li Mei's group); cited from earlier work
[26] = 120 min, read-out: Remaining % (T = 120 min)

T1 sequence (P11712 whole entry): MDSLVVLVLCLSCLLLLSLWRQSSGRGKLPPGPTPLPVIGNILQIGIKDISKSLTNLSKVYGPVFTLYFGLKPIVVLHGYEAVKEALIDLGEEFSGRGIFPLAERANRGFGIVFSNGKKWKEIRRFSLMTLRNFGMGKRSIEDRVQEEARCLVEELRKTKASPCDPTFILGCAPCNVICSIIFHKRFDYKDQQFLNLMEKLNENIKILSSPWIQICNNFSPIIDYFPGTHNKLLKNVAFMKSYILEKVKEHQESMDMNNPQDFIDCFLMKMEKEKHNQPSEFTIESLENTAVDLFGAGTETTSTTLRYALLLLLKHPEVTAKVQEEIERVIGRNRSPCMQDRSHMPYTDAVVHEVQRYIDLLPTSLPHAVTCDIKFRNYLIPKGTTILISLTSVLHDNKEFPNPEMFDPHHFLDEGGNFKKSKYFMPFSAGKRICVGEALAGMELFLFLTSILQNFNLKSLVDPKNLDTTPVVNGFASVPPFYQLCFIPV

CCOc1ccc2ccc(=O)oc2c1 [7-Ethoxycoumarin]
half-life at 1 μM ([1]; CD-1, cryopreserved hepatocytes (suspension), mouse hepatocytes, 0.5 × 10^6 cells/mL, 1 μM, n = 2): < 7.5 min | CLint scaled at 1 μM ([1]; CD-1, cryopreserved hepatocytes in suspension, scaled from mouse hepatocyte CLint, read-out: CLint (liver)): > 132 L/h/kg | CLint (hep) (μL/min/10^6) ([1]; mouse hepatocytes): >184.8 μL/min/10^6 | Remaining % (T = 90 min) ([1]; mouse hepatocytes, 90 min): 0.0% | half-life at 1 μM ([2]; Sprague Dawley, cryopreserved hepatocytes (suspension), rat hepatocytes, 0.5 × 10^6 cells/mL, 1 μM, n = 2): 18.2 min | remaining at 1.5 h, 1 μM ([2]; Sprague Dawley, cryopreserved hepatocytes in suspension, rat hepatocytes, 90 min, read-out: Remaining % (T = 90 min)): 2.1% | CLint scaled at 1 μM ([2]; Sprague Dawley, cryopreserved hepatocytes in suspension, scaled from rat hepatocyte CLint, read-out: CLint (liver)): 21.3 L/h/kg | CLint (hep) (μL/min/10^6) ([2]; rat hepatocytes): 76.0 μL/min/10^6 | half-life at 1 μM ([3]; cryopreserved hepatocytes (suspension), human hepatocytes, 0.5 × 10^6 cells/mL, 1 μM, n = 2): 41.6 min | remaining at 1.5 h, 1 μM ([3]; cryopreserved hepatocytes in suspension, human hepatocytes, 90 min, read-out: Remaining % (T = 90 min)): 21.9% | CLint scaled at 1 μM ([3]; cryopreserved hepatocytes in suspension, scaled from human hepatocyte CLint, read-out: CLint (liver)): 5.56 L/h/kg | CLint (hep) (μL/min/10^6) ([3]; human hepatocytes): 33.3 μL/min/10^6 | half-life at 1 μM ([4]; cryopreserved hepatocytes in suspension, monkey hepatocytes, 0.5 × 10^6 cells/mL, 1 μM, n = 2): 13.6 min | CLint scaled at 1 μM ([4]; cynomolgus monkey, cryopreserved hepatocytes in suspension, scaled from monkey hepatocyte CLint, read-out: CLint (liver)): 22 L/h/kg | CLint (hep) (μL/min/10^6) ([4]; monkey hepatocytes): 102.0 μL/min/10^6 | Remaining % (T = 90 min) ([4]; monkey hepatocytes, 90 min): 0.0% | half-life at 1 μM ([5]; beagle, cryopreserved hepatocytes in suspension, dog hepatocytes, 0.5 × 10^6 cells/mL, 1 μM, n = 2): 5.4 min | CLint scaled at 1 μM ([5]; beagle, cryopreserved hepatocytes in suspension, scaled from dog hepatocyte CLint, read-out: CLint (liver)): 106 L/h/kg | CLint (hep) (μL/min/10^6) ([5]; dog hepatocytes): 256.4 μL/min/10^6 | Remaining % (T = 90 min) ([5]; dog hepatocytes, 90 min): 0.0%

CC(=O)Oc1ccc(C(c2ccc(OC(C)=O)cc2)c2ccccn2)cc1 [Bisacodyl]
half-life at 2 μM ([6]; 37 °C, n = 2): 7.2 min | remaining at 2 h, 2 μM [6, 26]: 0%

CCOC(=O)[C@H](CCc1ccccc1)N[C@@H](C)C(=O)N1CCC[C@H]1C(=O)O.O=C(O)/C=C\C(=O)O [Enalapril maleate salt]
T1/2 ([7]; 37 °C, n = 2): 12.8 min | Remaining % (T = 120 min) ([7]; 120 min): 0.2%

CC(C)[C@H]1OC(=O)[C@H](Cc2ccccc2)N(C)C(=O)[C@@H](C(C)C)OC(=O)[C@H](Cc2ccccc2)N(C)C(=O)[C@@H](C(C)C)OC(=O)[C@H](Cc2ccccc2)NC1=O [M15]
Detected in liver microsomes: Dog [8]: + | Detected in liver microsomes: Rat [9]: + | Detected in liver microsomes: Mouse [10]: + | Detected in liver microsomes: Monkey [11]: + | Detected in liver microsomes: Human [12]: +

CCN(CC)CCOC(=O)c1ccc(N)cc1 [Procaine Hydrochloride]
half-life at 2 μM ([13]; 37 °C, n = 2): 4.4 min | remaining at 2 h, 2 μM [13, 26]: 0%

CC(C)[N+](C)(CCOC(=O)C1c2ccccc2Oc2ccccc21)C(C)C [Propantheline bromide]
half-life at 2 μM ([14]; 37 °C, n = 2): 10.3 min | remaining at 2 h, 2 μM [14, 26]: 0% | half-life at 2 μM ([15]; CD-1, 37 °C, n = 2): 36.6 min | remaining at 2 h, 2 μM ([15]; CD-1, 120 min, read-out: Remaining % (T = 120 min)): 9.7%

Nc1ccc(S(=O)(=O)Nc2ccnn2-c2ccccc2)cc1 [Sulfaphenazole]
Activity (% VC) [16]: 20.0 % VC

C[C@]12CC[C@H]3[C@@H](CCC4=CC(=O)CC[C@@]43C)[C@@H]1CC[C@@H]2O [Testosterone]
Remaining % (T = 60 min) ([17]; CLM, 60 min): 0.0% | half-life at 1 μM ([17]; cynomolgus monkey, liver microsomes, CLM, 1 μM, NADPH, n = 2): 5 min | microsomal CLint at 1 μM ([17]; cynomolgus monkey, liver microsomes, CLM, read-out: CLint(mic)): 277 µL/min/mg | CLint scaled at 1 μM ([17]; cynomolgus monkey, liver microsomes, scaled from CLM CLint(mic)): 22.4 L/h/kg | T1/2 ([18]; DLM, 1 μM, NADPH, n = 2): 20.0 min | microsomal CLint at 1 μM ([18]; beagle, dog, microsomes, DLM, read-out: CLint(mic)): 69.2 µL/min/mg | CLint scaled at 1 μM ([18]; beagle, dog, microsomes, scaled from DLM CLint(mic)): 5.98 L/h/kg | half-life at 1 μM ([19]; CD-1, mouse, liver microsomes, MLM, 1 μM, NADPH, n = 2): 3.9 min | microsomal CLint at 1 μM ([19]; CD-1, mouse, liver microsomes, MLM, read-out: CLint(mic)): 359 µL/min/mg | CLint scaled at 1 μM ([19]; CD-1, mouse, liver microsomes, scaled from MLM CLint(mic)): 85.3 L/h/kg | Remaining % (T = 60 min) ([19]; MLM, 60 min): 0.0% | Remaining % (T = 60 min) ([20]; RLM, 60 min): 0.0% | microsomal CLint at 1 μM ([20]; Sprague Dawley, rat, microsomes, RLM, read-out: CLint(mic)): 1370 µL/min/mg | CLint scaled at 1 μM ([20]; Sprague Dawley, rat, microsomes, scaled from RLM CLint(mic)): 148 L/h/kg

CC(=O)CC(c1ccccc1)c1c(O)c2ccccc2oc1=O (stereo not shown) [warfarin]
fraction unbound at 5 h [21]: 0.0271 | fraction unbound at 5 h [22]: 0.0246 | fraction unbound at 5 h [23]: 0.0084 | fraction unbound at 5 h [24]: 0.0052

Beauvericin
Inhibition mechanism, CYP3A4 [25]: mix-type
